# Reference: PMC11206507, “Unraveling the Impact of Six Pentacyclic Triterpenes Regulating Metabolic Pathways on Lung Carcinoma Cells” (Pharmaceuticals, 2024)
# Tested on: DNA damage machinery in A549 cells
# Test: DNA damage assay (anti-pH2AX / anti-pATM, flow cytometry)
# Type: cell-based, human
# Settings: A549, IC50, 24 h, vs untreated cells
# Procedure: We used flow cytometry to analyze several cellular mechanistic pathways in A549 cells after incubation with the triterpenes. In general, the cells were seeded in a 6-well plate at a density of 1 × 10^6 cells/mL and incubated for 24 h in supplemented DMEM. After 24 h, the A549 cells were treated with the triterpenes, following each manufacturer’s protocol. All of the following experiments were performed in a Muse® Cell Analyzer (EMD Millipore Corporation, Temecula, CA). The instrument was calibrated before each assay using the Muse® System Check Kit (Luminex MCH100101, Luminex Corporation). Each assay was run at least in two independent experiments. For each experiment, all samples were analyzed in triplicate in the instrument and the capillary line was washed after each sample run to avoid artifacts. In addition, to address the issue of cell doublets, we used the Muse® Cell Dispersal Reagent (Luminex Corporation) in all experiments. The concentration of the triterpenes in each assay was selected depending on the cellular concentration necessary to generate the gain signal in the instrument. This means that we attempted to select concentrations avoiding excessive cytotoxicity to accurately determine the respective signal from each assay.
# Then, the A549 cells were scraped and centrifuged. The pellet was suspended in the assay buffer from the Luminex MCH200107 kit (Luminex Corporation). […]
smiles,measurement,value
"C[C@H]1[C@H](C)CC[C@]2(C(=O)O)CC[C@]3(C)C(=CC[C@@H]4[C@@]5(C)CC[C@H](O)C(C)(C)[C@@H]5CC[C@]43C)[C@H]12 [UrA, ursolic acid]",Activation of the DNA damage machinery (in words),caused the activation of the DNA damage machinery
